Source: patent US6774211B1, “Peptide antiangiogenic drugs” (Abbott Laboratories, priority 1998, dated 2004)
Where a SMILES comes first, the peptide text is derived from it. [ ]: non-standard residue; d: D form. Nva = CCC[C@H](N)C(=O)O; Sar = CNCC(=O)O

The compounds below were run on Human Microvascular Endothelial Cells (HMVEC) (assay: Human microvascular endothelial cell (HMVEC) migration assay, modified Boyden chamber). Conditions: 10 nM; migration stimulated with 15 ng/ml bFGF/VEGF; compared to positive control.
Assay type: cell-based
Procedure: The human microvascular endothelial (HMVEC) migration assay was run according to the procedure of S. S. Tolsma, O. V. Volpert, D. J. Good, W. F. Frazier, P. J. Polverini and N. Bouck, J. Cell Biol. 122, 497-511 (1993).
The HMVEC migration assay was carried out using Human Microvascular Endothelial Cells-Dermal (single donor) and Human Microvascular Endothelial Cells, (neonatal). The BCE or HMVEC cells were starved overnight in DME containing 0.1% bovine serum albumin (BSA). Cells were then harvested with trypsin and resuspended in DME with 0.1% BSA at a concentration of 1.5×10^6 cells per ml. Cells were added to the bottom of a 48 well modified Boyden chamber (Nucleopore Corporation, Cabin John, Md.). The chamber was assembled and inverted, and cells were allowed to attach for 2 hours at 37° C. to polycarbonate chemotaxis membranes (5 μm pore size) that had been soaked in 0.1% gelatin overnight and dried. The chamber was then reinverted, and test substances (total volume of 50 μl), including activators, 15 ng/ml bFGF/VEGF, were added to the wells of the upper chamber. The apparatus was incubated for 4 hours at 37° C. Membranes were recovered, fixed and stained (Diff Quick, Fisher Scientific) and the number of cells that had migrated to the upper chamber per […] high power fields counted. Background migration to DME+0.1 BSA was subtracted and the data reported as the number of cells migrated per 10 high power fields (400×) or, when results from multiple experiments were combined, as the percent inhibition of migration compared to a positive control.

Row | Compound | % Inhib. @ 10 nM
1 | CCC[C@H](NC(=O)[C@@H](NC(=O)[C@H](NC(=O)[C@@H](NC(=O)CNC(=O)CN(C)C(C)=O)C(C)C)[C@H](C)CC)[C@@H](C)O)C(=O)N[C@H](C(=O)N[C@@H](CCCNC(=N)N)C(=O)N1CCC[C@H]1C(=O)NCC)[C@@H](C)CC [Example 1, N-Ac-Sar-Gly-Val-D-Ile-Thr-Nva-Ile-Arg-ProNHCH2CH3] (Ac-[Sar]GV[dI]T[Nva]IRP-NHEt) | 76.9%
2 | N-Ac-Sar-Gly-Val-D-Cha-Thr-Nva-Ile-Arg-ProNHCH2CH3 [Example 28] | 47.0%
3 | N-Ac-Sar-Gly-Val-D-Ile-Thr-Gln-Ile-Arg-ProNHCH2CH3 [Example 43] | 94.1%
4 | N-Ac-Sar-Gly-Val-D-Ile-Thr-Nva-Ile-Arg-ProNHethyl-(1-pyrrolidine) [Example 5] | 87.2%
5 | N-(Tetrahydro-2-furoyl)-Sar-Gly-Val-D-Ile-Thr-Nva-Ile-Arg-ProNHCH2CH3 [Example 61] | 83.7%
6 | N-Ac-Sar-Gly-Val-D-Val-Thr-Nva-Ile-Arg-ProNHCH2CH3 [Example 18] | 51.4%

Same assay, conditions: 20 nM; migration stimulated with 15 ng/ml bFGF/VEGF; compared to positive control

Row | Compound | % Inhib. @ 20 nM
7 | H-Sar-Gly-Val-D-Ile-Thr-Nva-Ile-Arg-ProNHCH2CH3 [Example 66] | 76.1%
8 | N-Succinyl-Sar-Gly-Val-D-Ile-Thr-Nva-Ile-Arg-ProNHCH2CH3 [Example 54] | 81.3%
9 | CCC[C@H](NC(=O)[C@@H](NC(=O)[C@H](NC(=O)[C@@H](NC(=O)CNC(=O)CN(C)C(C)=O)C(C)C)[C@H](C)CC)[C@@H](C)O)C(=O)N[C@H](C(=O)N[C@@H](CCCNC(=N)N)C(=O)N1CCC[C@H]1C(=O)NCC)[C@@H](C)CC [Example 1, N-Ac-Sar-Gly-Val-D-Ile-Thr-Nva-Ile-Arg-ProNHCH2CH3] (Ac-[Sar]GV[dI]T[Nva]IRP-NHEt) | 87.3%
10 | N-(2-Furoyl)-Sar-Gly-Val-D-Ile-Thr-Nva-Ile-Arg-ProNHCH2CH3 [Example 59] | 82.3%
11 | N-Ac-Sar-Gly-Val-D-Ile-Thr-Ala-Ile-Arg-ProNHCH2CH3 [Example 46] | 77.5%
12 | N-Ac-Sar-Gly-Val-D-Ile-Thr-Allylgly-Ile-Arg-ProNHCH2CH3 [Example 49] | 83.4%
13 | N-Shikimyl-Sar-Gly-Val-D-Ile-Thr-Nva-Ile-Arg-ProNHCH2CH3 [Example 58] | 68.8%
14 | N-Ac-Sar-Gly-Val-D-Ile-Thr-Val-Ile-Arg-ProNHCH2CH3 (Ac-[Sar]GV[dI]TVIRP-NHEt) [Example 47] | 69.7%
15 | N-(2-Me-Nicotinyl)-Sar-Gly-Val-D-Ile-Thr-Nva-Ile-Arg-ProNHCH2CH3 [Example 53] | 76.7%
16 | N-Ac-Sar-Gly-Val-D-Ile-Thr-Nva-Ile-Arg-ProNHCH(CH3)2 [Example 4] | 71.3%
17 | N-Butyryl-Sar-Gly-Val-D-Ile-Thr-Nva-Ile-Arg-ProNHCH2CH3 [Example 60] | 75.3%
18 | N-Ac-Sar-Gly-Val-D-Ile-Thr-DNva-Ile-Arg-ProNHCH2CH3 [Example 42] | 60.2%
19 | N-Nicotinyl-Sar-Gly-Val-D-Ile-Thr-Nva-Ile-Arg-ProNHCH2CH3 [Example 55] | 59.2%
20 | N-Ac-Sar-Gly-Val-D-Ile-Thr-Met-Ile-Arg-ProNHCH2CH3 (Ac-[Sar]GV[dI]TMIRP-NHEt; SMILES CCNC(=O)[C@@H]1CCCN1C(=O)[C@H](CCCNC(=N)N)NC(=O)[C@@H](NC(=O)[C@H](CCSC)NC(=O)[C@@H](NC(=O)[C@H](NC(=O)[C@@H](NC(=O)CNC(=O)CN(C)C(C)=O)C(C)C)[C@H](C)CC)[C@@H](C)O)[C@@H](C)CC) [Example 51] | 67.0%
21 | N-Propionyl-Sar-Gly-Val-D-Ile-Thr-Nva-Ile-Arg-ProNHCH2CH3 [Example 56] | 49.9%
22 | N-MeOacetyl-Sar-Gly-Val-D-Ile-Thr-Nva-Ile-Arg-ProNHCH2CH3 [Example 57] | 56.6%
23 | N-Ac-Sar-Gly-Val-D-Ile-Thr-Nva-Ile-Arg-ProNHCH2CH2OCH3 [Example 11] | 70.4%
